In one assay the target is T1, Human PKMYT1 (Homo sapiens, UniProt Q99640).
T1 construct: Human PKMYT1 75-362 was cloned as a TEV cleavable 6xHis fusion; 6xHis (TEV cleavable) (cleaved yes); made in house; host or cells: bacterial cells
T1 sequence (Q99640 75-362): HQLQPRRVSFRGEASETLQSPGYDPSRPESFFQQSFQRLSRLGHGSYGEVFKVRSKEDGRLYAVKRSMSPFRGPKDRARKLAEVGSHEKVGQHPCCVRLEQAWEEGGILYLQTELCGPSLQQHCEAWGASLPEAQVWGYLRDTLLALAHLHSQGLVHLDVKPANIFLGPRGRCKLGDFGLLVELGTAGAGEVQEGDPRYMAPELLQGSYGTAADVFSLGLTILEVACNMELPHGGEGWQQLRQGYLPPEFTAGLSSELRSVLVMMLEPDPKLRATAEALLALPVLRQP
Put plainly: PKMYT1 biochemical ADP-Glo enzymatic assay. The following applies: ADP-Glo; 15 nM PKMYT1 kinase domain, 500 µM ATP, 60 minutes at 26° C.; banded. The gist of the method: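 Intrinsic ATPase activity of E. coli-expressed, tag-cleaved human PKMYT1 kinase domain (75-362), 15 nM, with 500 µM ATP in HEPES pH 7.5/MgCl2/EGTA/Brij-35, 1% DMSO, 60 min at 26 °C. ADP formed was read by ADP-Glo Max luminescence; IC50 from 10-point, 3-fold dilution curves.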

The next assay concerns the target T2, WEE1 (Homo sapiens, UniProt P30291).
T2 construct: purchased Thermo Fisher PR7373A
Kind of assay: Selectivity versus WEE1 assay (ADP-Glo enzymatic assay). The assay is classed as biochemical. The following applies: banded; for IC50: ADP-Glo, 15 nM WEE1, 60 minutes at 26° C.; for PKMYT1 vs. WEE1 selectivity: fold difference in selectivity for PKMYT1 over WEE1, ">N" = at least in this band but could be higher. The gist of the method: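 Kinase at 15 nM final in 50 mM HEPES pH 7.5, 10 mM MgCl2, 1 mM EGTA, 0.01% Brij-35, 1% DMSO was started with 30 µM ATP and run 60 min at 26° C. ADP formed was read by ADP-Glo luminescence; IC50 came from dose-response curves.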

A word on the IC50: it is the concentration that inhibits the measured activity by half. Higher therefore signals weaker potency in that assay.

T2 sequence (P30291 whole entry): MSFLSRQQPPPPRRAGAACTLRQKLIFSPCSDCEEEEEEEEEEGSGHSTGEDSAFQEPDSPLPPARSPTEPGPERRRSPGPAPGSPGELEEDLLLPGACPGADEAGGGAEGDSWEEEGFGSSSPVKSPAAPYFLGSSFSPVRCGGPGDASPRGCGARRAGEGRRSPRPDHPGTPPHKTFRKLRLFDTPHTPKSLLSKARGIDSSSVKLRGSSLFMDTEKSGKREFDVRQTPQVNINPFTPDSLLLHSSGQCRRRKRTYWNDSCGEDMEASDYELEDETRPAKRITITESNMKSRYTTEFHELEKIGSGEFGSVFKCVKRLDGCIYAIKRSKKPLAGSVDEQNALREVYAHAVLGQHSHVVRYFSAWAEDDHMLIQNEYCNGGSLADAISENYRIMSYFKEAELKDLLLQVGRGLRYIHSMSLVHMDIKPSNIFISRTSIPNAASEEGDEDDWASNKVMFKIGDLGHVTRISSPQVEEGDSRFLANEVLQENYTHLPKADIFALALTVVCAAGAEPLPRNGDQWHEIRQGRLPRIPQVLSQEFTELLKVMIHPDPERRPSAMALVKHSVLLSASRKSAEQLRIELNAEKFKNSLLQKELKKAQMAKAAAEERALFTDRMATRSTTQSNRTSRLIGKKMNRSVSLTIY

On Human PKMYT1, `Cc1ccc(O)c(C)c1NC(=O)c1cnc(Nc2ccn(CC(=O)N3CCN(CC(F)(F)F)CC3)n2)s1` [BAA-184] registered an IC50 of 50 to 1000 nM. Further, at WEE1, the IC50 is > 11000 nM and the “PKMYT1 vs. WEE1 selectivity” value is on record as “>X (100-<1000 fold)”.

The molecule `Cc1ccc(O)c(C)c1NC(=O)c1cnc(Nc2ccn(CC(=O)N3CCN(C4CCC4)CC3)n2)s1` [BAA-185] registered an IC50 against Human PKMYT1 of 50 to 1000 nM. At WEE1, the IC50 is > 11000 nM and the “PKMYT1 vs. WEE1 selectivity” value was “>Y (1000-5000 fold)”.

As to `Cc1ccc(O)c(C)c1NC(=O)c1cnc(Nc2ccn(CC(=O)N3CCN(C4CCCC4)CC3)n2)s1` [BAA-186], at Human PKMYT1, the half-maximal inhibitory concentration (IC50) is < 50 nM. Moreover, at WEE1, the 50% inhibitory concentration (IC50) was > 11000 nM and the “PKMYT1 vs. WEE1 selectivity” value is reported as “Y (1000-5000 fold)”.

Take `Cc1ccc(O)c(C)c1NC(=O)c1cnc(Nc2ccn(CC(=O)N3CCN(C4CCCCC4)CC3)n2)s1` [BAA-187]: the IC50 at Human PKMYT1 is < 50 nM. For the same molecule, on WEE1, the IC50 was > 11000 nM and the “PKMYT1 vs. WEE1 selectivity” value is listed as “Y (1000-5000 fold)”.

Regarding `CCNC(=O)Cn1ccc(Nc2ncc(C(=O)Nc3c(C)ccc(O)c3C)s2)n1` [BAA-188], at Human PKMYT1, the IC50 was < 50 nM. Also, on WEE1, the IC50 is > 11000 nM and the “PKMYT1 vs. WEE1 selectivity” value is reported as “Y (1000-5000 fold)”.

`Cc1ccc(O)c(C)c1NC(=O)c1cnc(Nc2ccn(CC(=O)NC(C)C)n2)s1` [BAA-189, N-(3-hydroxy-2,6-dimethyl-phenyl)-2-[[1-[2-(isopropylamino)-2-oxo-ethyl]pyrazol-3-yl]amino]thiazole-5-carboxamide] yielded an IC50 at Human PKMYT1 of 50 to 1000 nM. Moreover, on WEE1, the IC50 was > 11000 nM and the “PKMYT1 vs. WEE1 selectivity” value is listed as “Y (1000-5000 fold)”.

For the molecule `Cc1ccc(O)c(C)c1NC(=O)c1cnc(Nc2ccn(CC(=O)NC3CCC3)n2)s1` [BAA-191], at Human PKMYT1, the IC50 was < 50 nM. Moreover, at WEE1, the IC50 is > 11000 nM and the “PKMYT1 vs. WEE1 selectivity” value is recorded as “Y (1000-5000 fold)”.

In the case of `Cc1ccc(O)c(C)c1NC(=O)c1cnc(Nc2ccn(CC(=O)NC3CCCC3)n2)s1` [BAA-192], the IC50 at Human PKMYT1 was < 50 nM. Besides, at WEE1, the IC50 was > 11000 nM and the “PKMYT1 vs. WEE1 selectivity” value is recorded as “Y (1000-5000 fold)”.

With `Cc1ccc(O)c(C)c1NC(=O)c1cnc(Nc2ccn(CC(=O)NC3CCCCC3)n2)s1` [BAA-193], the IC50 on Human PKMYT1 is < 50 nM. For the same molecule, at WEE1, the IC50 was > 11000 nM and the “PKMYT1 vs. WEE1 selectivity” value is “Y (1000-5000 fold)”.

For `Cc1ccc(O)c(C)c1NC(=O)c1cnc(Nc2ccn(CC(=O)N3CC4C(C3)C4(F)F)n2)s1` (stereo not drawn) [BAA-194], the IC50 against Human PKMYT1 is < 50 nM; on WEE1, > 11000 nM. The “PKMYT1 vs. WEE1 selectivity” value at WEE1 is “Y (1000-5000 fold)”.

Consider `Cc1ccc(O)c(C)c1NC(=O)c1cnc(Nc2ccn(CC(=O)NC3CCOCC3)n2)s1` [BAA-195], for which the IC50 at Human PKMYT1 was < 50 nM; against WEE1, > 11000 nM. For the same molecule, the “PKMYT1 vs. WEE1 selectivity” value on WEE1 was “Y (1000-5000 fold)”.

Turning to `Cc1ccc(O)c(C)c1NC(=O)c1cnc(Nc2ccn(CC(=O)N3CC(F)(F)C3)n2)s1` [BAA-196], on Human PKMYT1, the IC50 was < 50 nM. Also, at WEE1, the IC50 is > 11000 nM and the “PKMYT1 vs. WEE1 selectivity” value is given as “Y (1000-5000 fold)”.

As to `CCCNC(=O)Cn1ccc(Nc2ncc(C(=O)Nc3c(C)ccc(O)c3C)s2)n1` [BAA-197], the IC50 against Human PKMYT1 was < 50 nM. On WEE1, the IC50 is > 11000 nM and the “PKMYT1 vs. WEE1 selectivity” value is “Y (1000-5000 fold)”.

As to `Cc1ccc(O)c(C)c1NC(=O)c1cnc(Nc2ccn(CC(=O)N3CCN(C(=O)CC(C)C)CC3)n2)s1` [BAA-198, N-(3-hydroxy-2,6-dimethyl-phenyl)-2-[[1-[2-[4-(3-methylbutanoyl)piperazin-1-yl]-2-oxo-ethyl]pyrazol-3-yl]amino]thiazole-5-carboxamide], on Human PKMYT1, the IC50 is < 50 nM. Also, on WEE1, the IC50 is > 11000 nM and the “PKMYT1 vs. WEE1 selectivity” value is “Y (1000-5000 fold)”.

Consider `Cc1ccc(O)c(C)c1NC(=O)c1cnc(Nc2ccn(CC(=O)N3CC4(CCC4)C3)n2)s1` [BAA-199], for which the IC50 against Human PKMYT1 was < 50 nM. In addition, on WEE1, the IC50 was in the range of 1000 to 11000 nM and the “PKMYT1 vs. WEE1 selectivity” value is listed as “Y (1000-5000 fold)”.

Consider `Cc1ccc(O)c(C)c1NC(=O)c1cnc(Nc2ccn(CC(=O)N3CC4(CNC4)C3)n2)s1` [BAA-200, 2-[[1-[2-(2,6-Diazaspiro[3.3]heptan-2-yl)-2-oxo-ethyl]pyrazol-3-yl]amino]-N-(3-hydroxy-2,6-dimethyl-phenyl)thiazole-5-carboxamide 2,2,2-trifluoroacetate], for which, at Human PKMYT1, the IC50 was < 50 nM. At WEE1, the IC50 was > 11000 nM and the “PKMYT1 vs. WEE1 selectivity” value is “X (100-<1000 fold)”.

For the molecule `Cc1ccc(O)c(C)c1NC(=O)c1cnc(Nc2cc(C)n(CC(=O)N3CCN(C)CC3)n2)s1` [BAA-201], the IC50 on Human PKMYT1 was < 50 nM. Also, at WEE1, the IC50 was > 11000 nM and the “PKMYT1 vs. WEE1 selectivity” value is “X (100-<1000 fold)”.

With `CCNC(=O)Cn1nc(Nc2ncc(C(=O)Nc3c(C)ccc(O)c3C)s2)cc1C` [BAA-202, 2-[[1-[2-(ethylamino)-2-oxo-ethyl]-5-methyl-pyrazol-3-yl]amino]-N-(3-hydroxy-2,6-dimethyl-phenyl)thiazole-5-carboxamide], the IC50 against Human PKMYT1 is < 50 nM. Further, at WEE1, the IC50 is > 11000 nM and the “PKMYT1 vs. WEE1 selectivity” value is “X (100-<1000 fold)”.

For `Cc1ccc(O)c(C)c1NC(=O)c1cnc(Nc2cc(C)n(CC(=O)N3CCCC3)n2)s1` [BAA-203], the IC50 against Human PKMYT1 was < 50 nM. Also, at WEE1, the IC50 is > 11000 nM and the “PKMYT1 vs. WEE1 selectivity” value is “Y (1000-5000 fold)”.

On to `CCN(CC)C(=O)Cn1nc(Nc2ncc(C(=O)Nc3c(C)ccc(O)c3C)s2)cc1C` [BAA-204, 2-[[1-[2-(diethylamino)-2-oxo-ethyl]-5-methyl-pyrazol-3-yl]amino]-N-(3-hydroxy-2,6-dimethyl-phenyl)thiazole-5-carboxamide], for which the IC50 against Human PKMYT1 is < 50 nM. Also, at WEE1, the IC50 was > 11000 nM and the “PKMYT1 vs. WEE1 selectivity” value is “Z (>5000 fold)”.

On to `Cc1cn(CC(=O)N2CCN(C)CC2)nc1Nc1ncc(C(=O)Nc2c(C)ccc(O)c2C)s1` [BAA-205, N-(3-hydroxy-2,6-dimethyl-phenyl)-2-[[4-methyl-1-[2-(4-methylpiperazin-1-yl)-2-oxo-ethyl]pyrazol-3-yl]amino]thiazole-5-carboxamide], for which, on Human PKMYT1, the IC50 was < 50 nM. At WEE1, the IC50 was > 11000 nM and the “PKMYT1 vs. WEE1 selectivity” value is recorded as “Y (1000-5000 fold)”.

Regarding `Cc1ccc(O)c(C)c1NC(=O)c1cnc(Nc2nn(C)c3cccnc23)s1` [BAA-210, N-(3-Hydroxy-2,6-dimethyl-phenyl)-2-[(1-methylpyrazolo[4,3-b]pyridin-3-yl)amino]thiazole-5-carboxamide], the IC50 on Human PKMYT1 is < 50 nM; on WEE1, > 11000 nM. For the same molecule, the “PKMYT1 vs. WEE1 selectivity” value at WEE1 is “Z (>5000 fold)”.

As for `Cc1ccc(O)c(C)c1NC(=O)c1cnc(NCC2CCN(C(=O)CC(C)(C)C)CC2)s1` [BAA-212, 2-[[1-(3,3-Dimethylbutanoyl)-4-piperidyl]methylamino]-N-(3-hydroxy-2,6-dimethyl-phenyl)thiazole-5-carboxamide], at Human PKMYT1, the 50% inhibitory concentration (IC50) was in the range of 50 to 1000 nM. Besides, on WEE1, the IC50 was > 11000 nM and the “PKMYT1 vs. WEE1 selectivity” value was “>X (100-<1000 fold)”.

`COc1ccc(CC(=O)N2CCC(CNc3ncc(C(=O)Nc4c(C)ccc(O)c4C)s3)CC2)cc1` [BAA-213, N-(3-Hydroxy-2.6-dimethyl-phenyl)-2-[[1-[2-(4-methoxyphenyl)acetyl]-4-piperidyl]methylamino]thiazole-5-carboxamide] yielded an IC50 on Human PKMYT1 of 50 to 1000 nM. Besides, at WEE1, the IC50 was > 11000 nM and the “PKMYT1 vs. WEE1 selectivity” value is on record as “>X (100-<1000 fold)”.

Turning to `Cc1ccc(O)c(C)c1NC(=O)c1cnc(NCC2CCN(C(=O)Cc3ccc(Cl)cc3)CC2)s1` [BAA-214, 2-[[1-[2-(4-chlorophenyl)acetyl]-4-piperidyl]methylamino]-N-(3-hydroxy-2,6-dimethyl-phenyl)thiazole-5-carboxamide], the IC50 against Human PKMYT1 is 50 to 1000 nM; on WEE1 it was > 11000 nM. Also, on WEE1, the “PKMYT1 vs. WEE1 selectivity” value is on record as “>X (100-<1000 fold)”.

Molecule `Cc1ccc(O)c(C)c1NC(=O)c1cnc(NCC2CCN(C(=O)CC(C)(C)O)CC2)s1` [BAA-215, N-(3-hydroxy-2,6-dimethyl-phenyl)-2-[[1-(3-hydroxy-3-methyl-butanoyl)-4-piperidyl]methylamino]thiazole-5-carboxamide] registered an IC50 at Human PKMYT1 of 50 to 1000 nM. Besides, on WEE1, the IC50 was > 11000 nM and the “PKMYT1 vs. WEE1 selectivity” value was “>X (100-<1000 fold)”.

Regarding `Cc1ccc(O)c(C)c1NC(=O)c1cnc(NCCCN2CCN(C)CC2)s1` [BAA-218, N-(3-Hydroxy-2,6-dimethyl-phenyl)-2-[3-(4-methylpiperazin-1-yl)propylamino]thiazole-5-carboxamide], the IC50 against Human PKMYT1 was 1000 to 11000 nM; on WEE1, > 11000 nM. Further, on WEE1, the “PKMYT1 vs. WEE1 selectivity” value was “W (10-<100 fold)”.
